The values that follow come from PMC5909423, “Antibiotic resistance ABCF proteins reset the peptidyl transferase centre of the ribosome to counter translational arrest” (Nucleic Acids Research, 2018).

In this assay the target is T1, LsaA (Enterococcus faecalis, UniProt Q7WT47).
T1 construct: gene lsa
The settings on record: 1 uM LsaA, 1 mM ATP, 1 uM lincomycin; indirect read-out.

T1 sequence (Q7WT47 entry or part of it): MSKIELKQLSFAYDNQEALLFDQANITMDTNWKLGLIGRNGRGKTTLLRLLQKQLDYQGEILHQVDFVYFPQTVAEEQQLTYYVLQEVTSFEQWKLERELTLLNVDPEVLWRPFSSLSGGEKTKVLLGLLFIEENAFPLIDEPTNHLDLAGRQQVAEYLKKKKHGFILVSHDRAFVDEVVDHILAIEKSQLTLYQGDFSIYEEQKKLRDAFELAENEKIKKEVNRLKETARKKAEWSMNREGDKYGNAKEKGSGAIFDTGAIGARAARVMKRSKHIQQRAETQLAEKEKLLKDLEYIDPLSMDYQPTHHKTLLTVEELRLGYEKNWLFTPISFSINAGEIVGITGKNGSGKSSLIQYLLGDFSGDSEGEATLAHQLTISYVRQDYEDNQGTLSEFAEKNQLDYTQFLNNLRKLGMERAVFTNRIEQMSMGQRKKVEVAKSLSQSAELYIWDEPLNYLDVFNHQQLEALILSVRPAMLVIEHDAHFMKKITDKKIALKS

In the case of `Nc1ncnc2c1ncn2[C@@H]1O[C@H](COP(=O)(O)OP(=O)(O)OP(=O)(O)O)[C@@H](O)[C@H]1O` [ATP], the “ATP-dependent rescue of puromycin reaction of lincomycin-inhibited E. faecalis 7” value was “in the absence of ATP LsaA has no effect”.
